# According to paper PMC6958329, “New ^55Co-labeled Albumin-Binding Folate Derivatives as Potential PET Agents for Folate Receptor Imaging” (Pharmaceuticals, 2019):
# “And” between values parts separate entries of the source, which are not always exact repeats. Identical values can stand only once.
# How the values were obtained:
# [1] = In vitro stability in mouse serum (HPLC); format: in vitro ADME; conditions: 37 °C, normalized to 0 h, n = 3
# Description: Stability of the ^55Co-labeled folates was monitored over a period of 24 h in phosphate buffered saline (PBS) and mouse serum, to monitor the stability of a dose prior to injection (for potential shipment to a PET center) and match the longest biodistribution time point, respectively. The percentage of the intact complex was monitored at 1 h, 4 h, and 24 h via radio-TLC (PBS) or HPLC (mouse serum). […] In PBS, both radioconjugates retained 93% or greater stability at 24 h. […] As a control, one group of replicate serum tubes contained only [^55Co]CoCl2. […] Therefore, the peak corresponding to free [^55Co]CoCl2 (tR = 2.2 min) was used to determine the overall serum stability of the ^55Co-labeled chelates, which was approximately 95% for each compound at 24 h.
# The ^55Co-labeled folate derivatives were diluted 10-fold in 10 mM PBS (pH = 7.4) or whole mouse serum (EMD Millipore, Burlington, MA) in 1.5 mL centrifuge tubes to final volumes of 100 μL. The tubes were incubated at 37 °C with vortexing at 900 rpm using an Eppendorf ThermoMixer C (Eppendorf, Hamburg, Germany) equipped with a 1.5 mL heating block. In the case of PBS stability, three replicate tubes were prepared with average final activity concentrations of 37 kBq (1 μCi) [^55Co]Co-cm10/μL or 37 kBq (1 μCi) [^55Co]Co-rf42/μL, and the final concentrations of precursor were 0.07 mM of cm10 or rf42. The percent of the intact complex was determined by analyzing 1 μL aliquots of each solution by radio-TLC at 1 h, 4 h and 24 h. For mouse serum stability, three replicate tubes were prepared for each time point for each complex. The final average activity concentrations were 11.1 kBq (0.3 μCi) [^55Co]Co-cm10/μL and 7.4 kBq (0.2 μCi) [^55Co]Co-rf42/μL and 0.02 mM final folate concentration. A control sample was prepared for each time point that contained an average of 10.4 kBq/μL of [^55Co]CoCl2. At each time point, 300 μL of ACN was added to each tube to precipitate serum proteins. The tubes were centrifuged at 4500 rpm for 5 min using a benchtop microcentrifuge (Eppendorf, Hamburg, Germany) and the supernatants collected. The pellets were washed once more, and the supernatants were collected and combined with the first ACN wash. The activities in the pellets and supernatants were determined using a 2480 Wizard2 Automatic Gamma Counter (Perkin Elmer, Waltham, MA, USA) to determine the amount of activity associated with the protein pellet. To determine the percentage of intact complex, the supernatant was diluted 2-fold with water, and 100 μL of this mixture was injected into the HPLC.
# FR-expressing KB cells = experiment: Cell binding and internalization in KB cells; format: cell-based, human; conditions: for uptake blocked by co-incubation with folic acid: 0.7 mM folic acid
# Description: Cellular assays were performed using the human cervical cancer KB cell line, which was cultured in folate-deficient cell media prior to use. The ^55Co-labeled folates were incubated with FR-expressing KB cells to determine total uptake (i.e., all cell-associated activity, both surface-bound and internalized) and the internalized fraction. To determine whether uptake was receptor-mediated, some cells were co-incubated with folic acid, which binds to FRs with high affinity to act as a blocking agent. […] The uptake profiles for both of the tested radiofolates were similar to each other and more similar to the previously reported [^68Ga]Ga-rf42 complex, in contrast to [^64Cu]Cu-rf42 [14]. In the case of [^55Co]Co-cm10, 26% of the total uptake was internalized with 95% of the uptake blocked by co-incubation of the cells with 0.7 mM of folic acid (Figure 3).
# The human cervical cancer cell line KB (CCL-17) was purchased from ATCC (Manassas, VA, USA) and cells were cultured in Gibco folate-deficient RPMI 1640 growth medium (FFRPMI, Thermo Scientific, Waltham, MA, USA) supplemented with 10% fetal bovine serum, and Gibco 1% Antibiotic-Antimycotic. Cells were cultured following standard procedures and were incubated at 37 °C in a 5% CO2 environment and harvested using Gibco 0.25% trypsin-EDTA.
# Cell internalization was performed similarly to a previously published procedure. KB cells were harvested, washed with supplemented FFRPMI, and resuspended in supplemented FFRPMI at a final concentration of 1 × 10^5 cells/mL for seeding. In […], 1 mL of the cell mixture was added to each well, and the plates were incubated overnight to allow for adhesion and growth. The following morning, the radiofolates were prepared at molar activities of 331.7 MBq/μmol (9.0 mCi/µmol) [^55Co]Co-cm10 and 299.5 MBq/μmol (8.1 mCi/μmol) in 50 μL final volume and then diluted in supplement free FFRPMI (either with or without 1 mM folic acid) to a final volume of 1 mL/well. The plates were collected, the supernatants discarded, and 1 mL of the dilute radiofolates in media was added to each well (n = 4 for each condition). […] The stripping buffer and lysed cell fractions were collected separately and counted using an automatic gamma counter.
# The lysed cell fractions in NaOH were saved, and the total protein concentration for each sample was determined using a Pierce Micro BCA Protein Assay kit (Thermo Scientific, Waltham, MA, USA). The samples were vortexed vigorously prior to assaying, and were analyzed without further dilution. The results were used to normalize the measured radioactivity to the average protein content in each well.
SMILES,"percent intact complex, mouse serum ([1]; 1 h)","percent intact complex, mouse serum ([1]; 4 h)","percent intact complex, mouse serum ([1]; 24 h)",fraction of total uptake internalized (FR-expressing KB cells),uptake blocked by co-incubation with folic acid (FR-expressing KB cells)
Nc1nc2ncc(CNc3ccc(C(=O)N[C@@H](CCC(=O)NC(CCCCNC(=O)CN4CCN(CC(=O)O)CCN(CC(=O)O)CCN(CC(=O)O)CC4)C(=O)NC(CCCCNC(=O)CCCc4ccc(I)cc4)C(=O)O)C(=O)O)cc3)nc2c(=O)[nH]1.[55Co] (stereo partly shown) [[^55Co]Co-cm10],98 ± 1%,97.8 ± 0.6%,94% and 95 ± 1%,26%,95%
Nc1nc2ncc(CNc3ccc(C(=O)N[C@@H](CCC(=O)NC(CCCCNC(=O)CCC(C(=O)O)N4CCN(CC(=O)O)CCN(CC(=O)O)CC4)C(=O)NC(CCCCNC(=O)CCCc4ccc(I)cc4)C(=O)O)C(=O)O)cc3)nc2c(=O)[nH]1.[55Co] (stereo partly shown) [[^55Co]Co-rf42],97.5 ± 0.5%,97.2 ± 0.4%,94% and 94.6 ± 0.6%,24%,97%
